# Key:
# MOLM13 = experiment: 7-day proliferation assay (WST-8), MOLM13; assay type: cell-based; details: Homo sapiens, MOLM-13, 168 h; Table 5; MOLM13; 7 days; read-out: IC50 in cell growth inhibition
# Experimental: (§1) The effect of representative Compounds of the Disclosure on cell viability was determined in a 7-day proliferation assay. Cells were maintained in the appropriate culture medium with 10% FBS at 37° C. and an atmosphere of 5% CO2.
# (§2) Cells were seeded in 96-well flat bottom (Corning COSTAR, Corning, N.Y., cat #3595) at a density of 2,000-3,000 cells/well in 100 μl of culture medium. Compounds were serially diluted in the appropriate medium, and 100 μl of the diluted compounds were added to the appropriate wells of the cell plate. After the addition of compounds, the cells were incubated at 37° C. in an atmosphere of 5% CO2 for 7 days. Cell viability was determined using the WST (2-(2-methoxy-4-nitrophenyl)-3-(4-nitrophenyl)-5-(2,4-disulfophenyl)-2H-tetrazolium, monosodium salt) Cell Counting-8 Kit (Dojindo Molecular Technologies, Inc., Rockville, Md.) according to the manufacturers' instructions.
# (§3) WST-8 reagent was added to each well at a final concentration of 10% (v/v), and then the plates were incubated at 37° C. for 1-2 hours for color development. The absorbance was measured at 450 nm using a SPECTRAmax PLUS plate reader (Molecular Devices, Sunnyvale, Calif.). The readings were normalized to the DMSO-treated cells and the half maximal inhibitory concentration (IC50) was calculated by nonlinear regression (four parameters sigmoid fitted with variable slope, least squares fit, and no constraint) analysis using the GraphPad Prism 5 software (GraphPad Software, La Jolla, Calif.).
# MV4-11 = experiment: 7-day proliferation assay (WST-8), MV4-11; assay type: cell-based; details: Homo sapiens, 168 h; Table 5; MV4-11; 7 days; read-out: IC50 in cell growth inhibition
# Experimental: as §1, §2, §3
# menin protein = menin protein (Homo sapiens (Human), UniProt O00255); experiment: Fluorescence polarization (FP) competitive binding assay, menin binding affinity; details: menin protein 4 nM, probe 2 nM, room temperature 30 minutes
# Experimental: A fluorescence polarization (FP) competitive binding assay was used to determine the binding affinities of representative menin inhibitors. A FAM labeled fluorescent probe was designed and synthesized based on a MLL1 peptide (FAM-MM2). Equilibrium dissociation constant (Kd) value of FAM-MM2 to menin protein was determined from protein saturation experiments by monitoring the total fluorescence polarization of mixtures composed with the fluorescent probe at a fixed concentration and the protein with increasing concentrations up to full saturation. Serial dilutions of the protein were mixed with FAM-MM2 to a final volume of 200 μl in the assay buffer (PBS with 0.02% Bovine γ-Globulin and 4% DMSO. 0.01% Triton X-100 was added right before assays). Final FAM-MM2 concentration was 2 nM. Plates were incubated at room temperature for 30 minutes with gentle shaking to assure equilibrium. FP values in millipolarization units (mP) were measured using the Infinite M-1000 plate reader (Tecan U.S., Research Triangle Park, N.C.) in Microfluor 1 96-well, black, v-bottom plates (Thermo Scientific, Waltham, Mass.) at an excitation wavelength of 485 nm and an emission wavelength of 530 nm.
# The IC50, see Table 3, of representative Compounds of the Disclosure were determined in a competitive binding experiment. Mixtures of 5 μl of the tested compounds in DMSO and 195 μl of preincubated protein/probe complex solution in the assay buffer were added into assay plates which were incubated at room temperature for 30 minutes with gentle shaking. Final concentration of the menin protein was 4 nM, and final probe concentration is 2 nM. Negative controls containing protein/probe complex only (equivalent to 0% inhibition), and positive controls containing only free probes (equivalent to 100% inhibition), were included in each assay plate. FP values were measured as described above. IC50 values were determined by nonlinear regression fitting of the competition curves.
# Chain of menin protein (O00255 whole entry): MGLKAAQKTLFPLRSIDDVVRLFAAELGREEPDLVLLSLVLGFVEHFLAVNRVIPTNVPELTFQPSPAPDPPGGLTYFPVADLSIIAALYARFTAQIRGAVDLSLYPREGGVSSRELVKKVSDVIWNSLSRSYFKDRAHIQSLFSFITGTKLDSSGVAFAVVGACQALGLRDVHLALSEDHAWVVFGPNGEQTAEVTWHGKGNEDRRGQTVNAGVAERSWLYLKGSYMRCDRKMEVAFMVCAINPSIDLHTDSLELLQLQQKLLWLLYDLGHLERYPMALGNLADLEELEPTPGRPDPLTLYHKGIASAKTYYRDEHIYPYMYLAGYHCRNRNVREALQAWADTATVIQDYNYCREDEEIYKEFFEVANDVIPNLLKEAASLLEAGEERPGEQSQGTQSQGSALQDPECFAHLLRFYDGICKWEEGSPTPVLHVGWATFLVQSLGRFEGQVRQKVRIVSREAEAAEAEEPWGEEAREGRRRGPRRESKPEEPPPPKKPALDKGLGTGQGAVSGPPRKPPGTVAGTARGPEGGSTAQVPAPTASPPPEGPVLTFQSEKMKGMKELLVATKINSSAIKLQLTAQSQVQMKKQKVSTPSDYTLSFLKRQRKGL
Structure (SMILES),IC50 (MOLM13) [nM],IC50 (MV4-11) [nM],IC50 (menin protein) [nM]
"COC(=O)N[C@H]1CCC[C@@H]1[C@@](C#N)(c1cccc(F)c1)C1CCN(CC2CN(c3ccc(S(=O)(=O)C4CN(C(=O)/C=C/CN(C)C)C4)cc3)C2)CC1 [Cpd. No. 60, methyl ((1S,2R)-2-((R)-cyano(1-((1-(4-((1-((E)-4-(dimethylamino)but-2-enoyl)azetidin-3-yl)sulfonyl)phenyl)azetidin-3-yl)methyl)piperidin-4-yl)(3-fluorophenyl)methyl)cyclopentyl)carbamate]",1400,525,> 2000
"CCc1nccn1C[C@@](c1cccc(F)c1)(C1CCN(CC2CN(c3ccc(S(=O)(=O)C4CN(C(=O)/C=C/CN(C)C)C4)cc3)C2)CC1)[C@H]1CCC[C@@H]1NC(=O)OC [Cpd. No. 67, methyl ((1S,2R)-2-((S)-1-(1-((1-(4-((1-((E)-4-(dimethylamino)but-2-enoyl)azetidin-3-yl)sulfonyl)phenyl)azetidin-3-yl)methyl)piperidin-4-yl)-2-(2-ethyl-1H-imidazol-1-yl)-1-(3-fluorophenyl)ethyl)cyclopentyl)carbamate]",31,6,2
"COC(=O)N[C@H]1CCC[C@@H]1[C@](C#N)(c1cccc(F)c1)C1CCN(CC2(F)CN(c3ccc(S(=O)(=O)C4CN(C(=O)/C=C/CN(C)C)C4)cc3)C2)CC1 [Cpd. No. 69, methyl ((1S,2R)-2-((S)-cyano(1-((1-(4-((1-((E)-4-(dimethylamino)but-2-enoyl)azetidin-3-yl)sulfonyl)phenyl)-3-fluoroazetidin-3-yl)methyl)piperidin-4-yl)(3-fluorophenyl)methyl)cyclopentyl)carbamate]",,,9
"C=CC(=O)Nc1cccc(S(=O)(=O)c2ccc(N3CC(CN4CCC([C@](C#N)(c5cccc(F)c5)[C@H]5CCC[C@@H]5NC(=O)OC)CC4)C3)cc2)c1 [Cpd. No. 70, methyl ((1S,2R)-2-((R)-(1-((1-(4-((3-acrylamidophenyl)sulfonyl)phenyl)azetidin-3-yl)methyl)piperidin-4-yl)(cyano)(3-fluorophenyl)methyl)cyclopentyl)carbamate]",,,> 10000
"COC(=O)N[C@H]1CCC[C@@H]1[C@](C#N)(c1cccc(F)c1)C1CCN(CC2CN(c3ccc(S(=O)(=O)C4CN(C(=O)/C=C/CN5CCCCC5)C4)cc3)C2)CC1 [Cpd. No. 71, methyl ((1S,2R)-2-((S)-cyano(3-fluorophenyl)(1-((1-(4-((1-((E)-4-(piperidin-1-yl)but-2-enoyl)azetidin-3-yl)sulfonyl)phenyl)azetidin-3-yl)methyl)piperidin-4-yl)methyl)cyclopentyl)carbamate]",,,4
"COC(=O)N[C@H]1CCC[C@@H]1[C@](Cn1ccnn1)(c1cccc(F)c1)C1CCN(CC2CN(c3ccc(S(=O)(=O)C4CN(C(=O)/C=C/CN(C)C)C4)cc3)C2)CC1 [Cpd. No. 72, methyl ((1S,2R)-2-((S)-1-(1-((1-(4-((1-((E)-4-(dimethylamino)but-2-enoyl)azetidin-3-yl)sulfonyl)phenyl)azetidin-3-yl)methyl)piperidin-4-yl)-1-(3-fluorophenyl)-2-(1H-1,2,3-triazol-1-yl)ethyl)cyclopentyl)carbamate]",22,1,2
"CCc1nccn1C[C@@](c1cccc(F)c1)(C1CCN(CC2CN(c3ccc(S(=O)(=O)C4CN(C(=O)/C=C/CN5CCCCC5)C4)cc3)C2)CC1)[C@H]1CCC[C@@H]1NC(=O)OC [Cpd. No. 73, methyl ((1S,2R)-2-((S)-2-(2-ethyl-1H-imidazol-1-yl)-1-(3-fluorophenyl)-1-(1-((1-(4-((1-((E)-4-(piperidin-1-yl)but-2-enoyl)azetidin-3-yl)sulfonyl)phenyl)azetidin-3-yl)methyl)piperidin-4-yl)ethyl)cyclopentyl)carbamate]",6,0.1,2
"COC(=O)N[C@H]1CCC[C@@H]1[C@](C#N)(c1cccc(F)c1)C1CCN(CC2CN(c3ccc(S(=O)(=O)C4CN(C(=O)/C=C/CN5CCCC5)C4)cc3)C2)CC1 [Cpd. No. 74, methyl ((1S,2R)-2-((S)-cyano(3-fluorophenyl)(1-((1-(4-((1-((E)-4-(pyrrolidin-1-yl)but-2-enoyl)azetidin-3-yl)sulfonyl)phenyl)azetidin-3-yl)methyl)piperidin-4-yl)methyl)cyclopentyl)carbamate]",14,2,3
"COC(=O)N[C@H]1CCC[C@@H]1[C@](C#N)(c1cccc(F)c1)C1C[C@@H](C)N(CC2CN(c3ccc(S(=O)(=O)C4CN(C(=O)/C=C/CN(C)C)C4)cc3)C2)[C@@H](C)C1 (stereo partly drawn) [Cpd. No. 75, methyl ((1S,2R)-2-((1S)-cyano((2R,6S)-1-((1-(4-((1-((E)-4-(dimethylamino)but-2-enoyl)azetidin-3-yl)sulfonyl)phenyl)azetidin-3-yl)methyl)-2,6-dimethylpiperidin-4-yl)(3-fluorophenyl)methyl)cyclopentyl)carbamate]",,,6
"N#C[C@@](c1cccc(F)c1)(C1CCN(CC2CN(c3ccc(S(=O)(=O)C4CC4)cc3)C2)CC1)[C@H]1CCC[C@@H]1NC(=O)CCl [Cpd. No. 76, 2-chloro-N-((1S,2R)-2-((S)-cyano(1-((1-(4-(cyclopropylsulfonyl)phenyl)azetidin-3-yl)methyl)piperidin-4-yl)(3-fluorophenyl)methyl)cyclopentyl)acetamide]",313,117,5
"C=CC(=O)N1CCC(S(=O)(=O)c2ccc(N3CC(CN4CCC([C@@](C#N)(c5cccc(F)c5)[C@H]5CCC[C@@H]5NC(=O)OC)CC4)C3)cc2)C1 (stereo partly drawn) [Cpd. No. 77, methyl ((1S,2R)-2-((1S)-(1-((1-(4-((1-acryloylpyrrolidin-3-yl)sulfonyl)phenyl)azetidin-3-yl)methyl)piperidin-4-yl)(cyano)(3-fluorophenyl)methyl)cyclopentyl)carbamate]",1220,91,11
"C=CS(=O)(=O)N[C@H]1CCC[C@@H]1[C@](C#N)(c1cccc(F)c1)C1CCN(CC2CN(c3ccc(C#N)cc3)C2)CC1 [Cpd. No. 79, N-((1S,2R)-2-((S)-cyano(1-((1-(4-cyanophenyl)azetidin-3-yl)methyl)piperidin-4-yl)(3-fluorophenyl)methyl)cyclopentyl)ethenesulfonamide]",,,1070
"C=CC(=O)N[C@H]1CCC[C@@H]1[C@](C#N)(c1cccc(F)c1)C1CCN(CC2CN(c3ccc(C#N)cc3)C2)CC1 [Cpd. No. 80, N-((1S,2R)-2-((S)-cyano(1-((1-(4-cyanophenyl)azetidin-3-yl)methyl)piperidin-4-yl)(3-fluorophenyl)methyl)cyclopentyl)acrylamide]",,,7
"N#Cc1ccc(N2CC(CN3CCC([C@@](C#N)(c4cccc(F)c4)[C@H]4CCC[C@@H]4NC(=O)CCl)CC3)C2)cc1 [compound 81, 2-chloro-N-((1S,2R)-2-((S)-cyano(1-((1-(4-cyanophenyl)azetidin-3-yl)methyl)piperidin-4-yl)(3-fluorophenyl)methyl)cyclopentyl)acetamide]",,,9
"C#CC(=O)N[C@H]1CCC[C@@H]1[C@](C#N)(c1cccc(F)c1)C1CCN(CC2CN(c3ccc(C#N)cc3)C2)CC1 [compound 82, N-((1S,2R)-2-((S)-cyano(1-((1-(4-cyanophenyl)azetidin-3-yl)methyl)piperidin-4-yl)(3-fluorophenyl)methyl)cyclopentyl)propiolamide]",,,4
